Experimental data as given in ChEMBL document CHEMBL1201862, “PubChem BioAssay data set” (2004).
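Tested at 5 concentrations; 48 h exposure; 96-well plates; endpoints linearly interpolated, else capped at highest concentration. GI50 is the concentration that inhibits growth by half.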 Activity calls are given as the source filed them. No stated cut-off is given here; in the data, active = GI50 up to about 1.1 µM and inactive = higher.

Assays:
Test in all cases: growth of human tumour cells (NCI), 48 h
[1] = test system: COLO 205
[2] = test system: SK-OV-3
[3] = test system: CCRF-CEM
[4] = test system: UO-31
[5] = test system: SF-295
[6] = test system: U-251
[7] = test system: MOLT-4
[8] = test system: SW-620
[9] = test system: HT-29
[10] = test system: LOX IMVI
[11] = test system: NCI-H460
[12] = test system: OVCAR-4
[13] = test system: SK-MEL-2
[14] = test system: NCI-H23
[15] = test system: RXF 393
[16] = test system: HCT-116
[17] = test system: HOP-62
[18] = test system: SF-539
[19] = test system: ACHN
[20] = test system: K562

Measured: GI50

O=c1c2c(nc3[nH]ccn13)CCCC2
inactive: [1] > 10 µM | [2] > 10 µM | [3] > 10 µM | [4] > 10 µM | [5] > 10 µM | [6] > 10 µM | [7] > 10 µM | [8] > 10 µM | [9] > 10 µM | [10] > 10 µM | [11] > 10 µM | [12] > 10 µM | [13] > 10 µM | [14] > 10 µM | [15] > 10 µM | [16] > 10 µM | [17] > 10 µM | [18] > 10 µM | [19] > 10 µM

CC1(C(=O)O)CCC(C(=O)O)C(C)(C)O1 (configuration not stated)
inactive: [1] > 100 µM | [2] > 100 µM | [3] > 100 µM | [4] > 100 µM | [5] > 100 µM | [6] > 100 µM | [7] > 100 µM | [8] > 100 µM | [9] > 100 µM | [20] > 100 µM | [10] > 100 µM | [11] > 100 µM | [12] > 100 µM | [13] > 100 µM | [14] > 100 µM | [15] > 100 µM | [16] > 100 µM | [17] 4.9 µM | [18] > 100 µM | [19] > 100 µM

N#C/C(=C\c1ccncc1)c1csc2ccccc12
inactive: [1] 18.9 µM | [2] 34.8 µM | [3] 20.4 µM | [4] 24.9 µM | [5] 32.4 µM | [6] 23.5 µM | [7] 15.5 µM | [8] 26.5 µM | [9] 18.6 µM | [20] 20.2 µM | [10] 20.4 µM | [11] 24.9 µM | [12] 26.2 µM | [13] 17.2 µM | [14] 25.2 µM | [15] 27.7 µM | [16] 16.6 µM | [17] 24.8 µM | [18] 21.4 µM

CN(C)c1ccc2nc(CC(O)(C(F)(F)F)C(F)(F)F)ccc2c1
inactive: [1] > 10 µM | [2] > 10 µM | [3] > 10 µM | [4] > 10 µM | [5] > 10 µM | [6] > 10 µM | [7] > 10 µM | [8] > 10 µM | [9] > 10 µM | [20] > 10 µM | [10] > 10 µM | [11] > 10 µM | [12] > 10 µM | [13] > 10 µM | [14] > 10 µM | [15] > 10 µM | [16] > 10 µM | [17] > 10 µM | [18] > 10 µM | [19] > 10 µM

COC1=C2CC(C)CC(OC)C(OC(=O)CN)[C@H](C)/C=C(\C)C(OC(N)=O)C(OC)/C=C\C=C(/C)C(=O)NC(=CC1=O)C2=O (some centres not stated)
active: [1] 0.0562 µM | [3] 0.299 µM | [4] 0.716 µM | [7] 0.344 µM | [8] 0.065 µM | [9] 0.306 µM | [10] 0.284 µM | [12] 0.708 µM | [14] 0.369 µM | [15] 0.507 µM | [16] 0.498 µM | [17] 0.942 µM | [19] 0.446 µM
inactive: [2] 3.32 µM | [5] 3.84 µM | [6] 1.58 µM | [11] 6.14 µM | [13] 3.84 µM | [18] 1.24 µM

Cc1ccc2[nH]c3c(C)c4ccncc4c(C)c3c2c1
active: [1] 0.873 µM | [3] 0.242 µM | [5] 1.08 µM | [7] 0.231 µM | [8] 0.384 µM | [9] 1.06 µM | [20] 0.519 µM | [10] 0.871 µM | [11] 0.456 µM | [12] 1.08 µM | [15] 0.226 µM | [16] 0.322 µM | [19] 1.09 µM
inactive: [2] 2.23 µM | [4] 1.58 µM | [6] 1.16 µM | [13] 1.59 µM | [14] 1.24 µM | [17] 1.19 µM | [18] 1.33 µM
